Like-named read-outs stand apart in the source and are kept apart here.
What was measured:
[1] = as compared to bacteriochlorophyll-a; Beems et al.; cited from earlier work
SMT-F tumors = assay: Photodynamic treatment of SMT-F tumors in mice with bchla, tumor response; assay type: in vivo, DBA2/HaD mice
Method: DBA2/HaD mice were transplanted with SMT-F tumors. When the subcutaneous tumors reached 4.5-5.5 mm in diameter, the mice, in groups of five, were injected intravenously with the bchla solution of Example 1 in doses of 5-30 mg/kg. At a time 1 hour-5 days later, the tumor, previously shaved and depiliated, plus a margin of 2-3 mm was exposed to radiation of a wavelength in the range 630-800 nm using a Spectraphysics argon dye laser with Exciton LDS751 dye, tunable over the 700-800 nm range or a diode laser--e. g., Spectra Diode emitting in the 750-850 nm range or a Xenon arc lamp filtered with an interference filter to pass 90% of the 700 nm light ±60 nm at dose rates of 75-150 mW/cm^2. When the Xenon system was used, mild hyperthermia resulted (42° C. at 160 mW/cm^2). It is not known whether this temperature rise acts synergistically with bchla as has been shown with HpD and its active fraction.
Tumor response is shown in the table of FIG. 1 for the seventh day after light treatment which indicates regression, and at a time point at least 30 days after light treatment, which would indicate cure, if there had been no regrowth.
As shown in FIG. 1 good response to bchla was obtained, for example, after 2 hours at 5 mg/kg in the 670-790 nm range and after 24 hours after injection with 10 mg/kg and irradiated at 680-780 nm. […]

skin of the foot = assay: Cutaneous photosensitivity of the foot of treated mice versus tumor response (therapeutic ratio); assay type: in vivo
Method: One of the undesirable side effects of photodynamic therapy using certain compounds is cutaneous photosensitivity unrelated to the target biological substrate. Accordingly, the effect of the treatment on the photosensitivity of the foot of the treated mice was measured. The response of the foot was measured as erythema and/or edema (or loss of skin or further damage).

[2] = Uptake, clearance and metabolism of bchla in tumor and liver (extraction, HPLC); assay type: in vivo, DBA/2 Ha mice; conditions: for concentration at 2 h: 2 h after injection; for concentration at 24 h: 24 h after injection
Method: Uptake and clearance of bchla in tumor and liver were measured by extraction of the tumor or liver tissue with 1:1MeOH:CH2 Cl2, followed by HPLC analysis.
bchla Uptake in DBA/2 Ha Mice in SMT-F Tumor

[3] = cited from earlier work
[4] = Chemical and in vivo stability of bchla

Which Water solubility [1] does the source give for `CCC1c2cc3[nH]c(c(CC(=O)O)c4nc(cc5[nH]c(cc(n2)C1C)c(C(C)=O)c5C)C(C)C4CCC(=O)O)c(C(=O)O)c3C` (stereo not shown) [bacteriochlorin-a] here?
The Water solubility was “enhanced water solubility”.

For `CCC1C2=NC(=Cc3c(C(C)=O)c(C)c4[n]3[Mg][n]3c(c(C)c(C(=O)O)c3=C(CC(=O)O)C3=NC(=C4)C(C)C3CCC(=O)O)=C2)C1C` (stereo not shown) [bacteriochloro-phyllin-a], which Water solubility [1] is on record?
Its Water solubility is “enhanced water solubility”.

With `CCC1C2=NC(=Cc3c(C(C)=O)c(C)c4[n]3[Mg][n]3c(c(C)c5c3=C(C3=NC(=C4)C(C)C3CCC(=O)OCC=C(C)CCCC(C)CCCC(C)CCCC(C)C)C(C(=O)OC)C5=O)=C2)C1C` (stereo not shown) [bchla, Bacteriochlorophyll-a] as the compound, how does the Tumor response (SMT-F tumors; 5 mg/kg i.v., 2 hours after injection, 670-790 nm range) read?
The Tumor response was “good response”.

What about the Tumor response (SMT-F tumors; 10 mg/kg i.v., 24 hours after injection, irradiated at 680-780 nm) of the same compound?
The Tumor response was “good response”.

And the “Expected persistence of sensitivity to light” value (skin of the foot; expected from the mouse foot response)?
The value was “only a few days”.

What about the “Sensitivity of the tumor and the skin of the foot as a function of time” value (skin of the foot; mice, FIG. 3) of the same compound?
Its value is “declined concomitantly”.

What about the “Levels in tumor and liver maintained” value ([2]; 24 or 48 hours) of the same compound?
The value was “maintained for as long as 24 or 48 hours”.

And the “Levels in tumor and liver” value ([2]; after 2 hours)?
Its value is “high levels”.

What about the “Composition of material in tumor” value ([2]; at 24 hours) of the same compound?
The value was “demetallized but still contains phytyl”.

What about the “Composition of material in tumor” value ([2]; at 48 hours) of the same compound?
Its value is “mainly material without phytyl and without Mg”.

And the “Time of partial conversion to bacteriopheophytin” value ([2]; liver)?
The value was 2 h.

What about the concentration at 2 h ([2]; mouse, liver, 10 mg/kg, read-out: Tissue Level, Liver) of the same compound?
Its concentration at 2 h is 44000 ng/g.

What about the concentration at 24 h ([2]; mouse, liver, 10 mg/kg, uncertain (*), conversion to other components, read-out: Tissue Level, Liver) of the same compound?
The concentration at 24 h was 49400 ng/g.

And the concentration at 2 h ([2]; mouse, tumor, 10 mg/kg, read-out: Tissue Level, Tumor)?
Its concentration at 2 h is 6140 ng/g.

And the concentration at 48 h ([2]; mouse, tumor, 10 mg/kg, 48 h after injection, uncertain (*), conversion to other components, read-out: Tissue Level, Tumor)?
Its concentration at 48 h is 10700 ng/g.

What about the concentration at 2 h ([2]; mouse, tumor, 20 mg/kg, read-out: Tissue Level, Tumor) of the same compound?
The concentration at 2 h was 16000 ng/g.

And the concentration at 24 h ([2]; mouse, tumor, 20 mg/kg, uncertain (*), conversion to other components, read-out: Tissue Level, Tumor)?
Its concentration at 24 h is 10000 to 19700 ng/g.

And the “Time of partial conversion to bacteriopheophytin” value ([2]; tumor)?
Its value is no less than 24 h.

What about the “Composition of material in tumor” value ([2]; two hours after injection) of the same compound?
Its value is “essentially only bchla with a small amount of material wherein the phytyl group has hydrolyzed”.

What about the “Stability towards loss of magnesium ion” value ([3]; dilute acid) of the same compound?
The value was “readily removed”.

And the Stability towards oxidation ([3]; especially in the presence of light)?
The Stability towards oxidation was “readily oxidized”.

And the Stability in vivo [4]?
Its Stability in vivo is “sufficiently stable in vivo”.
